Reference: ChEMBL document CHEMBL4673239, “Discovery of Tyrosine Kinase 2 (TYK2) Inhibitor (PF-06826647) for the Treatment of Autoimmune Diseases” (J Med Chem, 2020)

What was measured:
TYK2/JAK2 (Homo sapiens) = settings: Blood, time 60.0 min
[1] = Fraction unbound in human plasma; type: ADME, cell-free
[2] = Apparent permeability in MDCK-II cells; type: ADME, cell-based, Canis lupus familiaris; settings: dog
Homo sapiens = species: Homo sapiens; assay: Selectivity ratio of IC50 for recombinant human GST-tagged JAK2 catalytic domain (809 to 1153+9 residues) expressed in baculovirus expression system to IC50 for inhibition of recombinant human His-tagged TYK2 expressed in baculovirus infected Sf21 cells
[3] = target: Non-receptor tyrosine-protein kinase TYK2 (Homo sapiens, UniProt P29597); assay: biochemical
Chain of Non-receptor tyrosine-protein kinase TYK2 (P29597 whole entry, the tested form may be a part): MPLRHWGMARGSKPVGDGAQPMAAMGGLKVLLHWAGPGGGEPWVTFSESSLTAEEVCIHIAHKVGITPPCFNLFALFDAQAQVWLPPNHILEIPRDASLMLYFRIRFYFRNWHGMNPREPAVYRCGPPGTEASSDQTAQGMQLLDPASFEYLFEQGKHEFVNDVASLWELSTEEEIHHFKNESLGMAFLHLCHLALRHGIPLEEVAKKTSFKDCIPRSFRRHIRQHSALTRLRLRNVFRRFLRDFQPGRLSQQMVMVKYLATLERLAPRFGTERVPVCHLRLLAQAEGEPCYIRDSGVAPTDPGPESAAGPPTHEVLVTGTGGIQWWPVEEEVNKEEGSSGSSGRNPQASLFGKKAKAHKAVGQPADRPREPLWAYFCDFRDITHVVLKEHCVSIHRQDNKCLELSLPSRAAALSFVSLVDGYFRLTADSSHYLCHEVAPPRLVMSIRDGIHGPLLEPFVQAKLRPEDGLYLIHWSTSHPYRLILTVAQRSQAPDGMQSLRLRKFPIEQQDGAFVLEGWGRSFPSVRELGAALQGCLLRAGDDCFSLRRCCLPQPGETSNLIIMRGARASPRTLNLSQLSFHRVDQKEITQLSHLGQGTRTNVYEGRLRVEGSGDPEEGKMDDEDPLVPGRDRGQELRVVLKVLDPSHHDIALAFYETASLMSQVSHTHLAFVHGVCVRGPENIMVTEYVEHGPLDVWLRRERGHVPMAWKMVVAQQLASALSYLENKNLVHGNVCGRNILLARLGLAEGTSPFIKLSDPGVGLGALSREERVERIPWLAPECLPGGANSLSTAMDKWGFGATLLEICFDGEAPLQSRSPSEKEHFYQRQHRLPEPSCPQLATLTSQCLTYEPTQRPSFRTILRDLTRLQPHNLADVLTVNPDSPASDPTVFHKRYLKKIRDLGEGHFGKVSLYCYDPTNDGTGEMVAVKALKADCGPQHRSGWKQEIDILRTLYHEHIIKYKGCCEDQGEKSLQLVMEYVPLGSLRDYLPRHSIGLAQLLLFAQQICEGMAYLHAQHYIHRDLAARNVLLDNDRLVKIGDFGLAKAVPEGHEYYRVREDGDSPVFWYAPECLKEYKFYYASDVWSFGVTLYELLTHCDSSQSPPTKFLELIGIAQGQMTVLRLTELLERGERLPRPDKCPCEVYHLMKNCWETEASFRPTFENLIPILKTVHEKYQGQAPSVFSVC

[4] = target: T1, Tyrosine-protein kinase JAK2 (Homo sapiens, UniProt O60674); assay: Inhibition of recombinant human GST-tagged JAK2 catalytic domain (809 to 1153+9 residues) expressed in baculovirus expression system using FITC-KGGEEEEYFELVKK as substrate in presence of ATP at Km by microfluidic assay
T1 sequence (O60674 whole entry, the tested form may be a part): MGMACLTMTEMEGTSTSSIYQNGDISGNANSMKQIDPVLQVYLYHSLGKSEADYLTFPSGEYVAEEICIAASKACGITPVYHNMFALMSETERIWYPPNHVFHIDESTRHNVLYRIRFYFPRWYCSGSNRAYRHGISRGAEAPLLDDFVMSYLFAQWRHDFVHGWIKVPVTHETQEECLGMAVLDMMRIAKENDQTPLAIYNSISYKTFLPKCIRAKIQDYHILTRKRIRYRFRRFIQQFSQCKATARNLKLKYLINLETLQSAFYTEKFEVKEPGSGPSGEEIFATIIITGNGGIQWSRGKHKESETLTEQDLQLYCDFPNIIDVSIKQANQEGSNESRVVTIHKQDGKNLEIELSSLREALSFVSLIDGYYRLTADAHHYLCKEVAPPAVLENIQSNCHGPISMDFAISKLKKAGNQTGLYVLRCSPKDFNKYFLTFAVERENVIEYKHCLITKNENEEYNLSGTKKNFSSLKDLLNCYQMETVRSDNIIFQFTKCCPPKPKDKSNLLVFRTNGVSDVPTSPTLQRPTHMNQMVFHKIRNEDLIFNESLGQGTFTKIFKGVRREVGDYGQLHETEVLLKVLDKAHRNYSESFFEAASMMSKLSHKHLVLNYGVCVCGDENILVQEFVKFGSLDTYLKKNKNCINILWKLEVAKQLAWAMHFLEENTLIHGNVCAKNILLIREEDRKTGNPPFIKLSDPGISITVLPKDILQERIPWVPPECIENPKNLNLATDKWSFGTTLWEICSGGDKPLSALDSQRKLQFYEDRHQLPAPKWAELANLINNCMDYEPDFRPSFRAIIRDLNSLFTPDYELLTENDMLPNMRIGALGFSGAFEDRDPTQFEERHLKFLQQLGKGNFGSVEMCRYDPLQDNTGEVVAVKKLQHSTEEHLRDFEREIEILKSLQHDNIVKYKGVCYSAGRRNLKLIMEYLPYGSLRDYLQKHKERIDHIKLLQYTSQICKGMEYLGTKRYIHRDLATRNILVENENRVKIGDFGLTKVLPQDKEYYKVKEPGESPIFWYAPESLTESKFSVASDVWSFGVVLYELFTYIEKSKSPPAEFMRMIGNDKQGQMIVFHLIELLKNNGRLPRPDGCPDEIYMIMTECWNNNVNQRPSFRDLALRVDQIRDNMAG

[5] = target: T2, Tyrosine-protein kinase JAK3 (Homo sapiens, UniProt P52333); assay: Inhibition of recombinant human GST-tagged JAK3 catalytic domain (781 to 1124 residues) expressed in baculovirus expression system using FITC-KGGEEEEYFELVKK as substrate in presence of ATP at Km by microfluidic assay
T2 sequence (P52333 whole entry): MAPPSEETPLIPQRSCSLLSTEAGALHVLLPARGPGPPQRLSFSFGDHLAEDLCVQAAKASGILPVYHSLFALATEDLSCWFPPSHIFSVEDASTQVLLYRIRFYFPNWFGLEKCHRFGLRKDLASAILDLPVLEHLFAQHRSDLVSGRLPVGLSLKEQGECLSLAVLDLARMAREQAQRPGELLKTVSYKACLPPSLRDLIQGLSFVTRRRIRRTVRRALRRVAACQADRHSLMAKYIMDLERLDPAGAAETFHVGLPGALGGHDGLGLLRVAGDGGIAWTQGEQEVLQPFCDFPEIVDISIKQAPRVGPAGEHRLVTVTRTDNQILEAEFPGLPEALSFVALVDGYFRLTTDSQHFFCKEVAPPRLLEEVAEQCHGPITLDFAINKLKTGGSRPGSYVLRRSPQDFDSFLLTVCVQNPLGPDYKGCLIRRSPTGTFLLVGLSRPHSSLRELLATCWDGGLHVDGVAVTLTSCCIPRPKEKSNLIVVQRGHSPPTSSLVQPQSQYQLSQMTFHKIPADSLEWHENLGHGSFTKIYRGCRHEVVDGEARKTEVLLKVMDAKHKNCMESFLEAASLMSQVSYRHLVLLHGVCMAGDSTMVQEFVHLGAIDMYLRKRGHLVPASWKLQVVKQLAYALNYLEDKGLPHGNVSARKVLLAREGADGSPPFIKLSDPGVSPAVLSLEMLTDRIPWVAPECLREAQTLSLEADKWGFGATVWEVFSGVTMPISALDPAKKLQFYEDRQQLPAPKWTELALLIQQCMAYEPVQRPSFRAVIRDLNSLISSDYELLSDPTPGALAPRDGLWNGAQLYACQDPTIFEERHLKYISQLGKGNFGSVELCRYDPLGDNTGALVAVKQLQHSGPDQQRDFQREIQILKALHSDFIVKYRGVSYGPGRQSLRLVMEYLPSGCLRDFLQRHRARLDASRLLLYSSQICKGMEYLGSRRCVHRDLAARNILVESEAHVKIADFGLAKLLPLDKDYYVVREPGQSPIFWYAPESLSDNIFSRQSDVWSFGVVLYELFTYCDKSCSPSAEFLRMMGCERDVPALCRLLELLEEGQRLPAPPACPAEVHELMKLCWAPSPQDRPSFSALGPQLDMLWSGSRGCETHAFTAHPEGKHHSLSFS

physchem = settings: octanol/water phosphate buffer, pH 7.4
Description: Octanol/water phosphate buffer partition coefficient, log D of compound at pH 7.4 by shake-flask method

[6] = Apparent clearance in human hepatocytes assessed per million cells; type: ADME, cell-based, Hepatocyte; settings: read-out: CLH
[7] = target: Tyrosine-protein kinase JAK1 (Homo sapiens, UniProt P23458)
Chain of Tyrosine-protein kinase JAK1 (P23458 whole entry): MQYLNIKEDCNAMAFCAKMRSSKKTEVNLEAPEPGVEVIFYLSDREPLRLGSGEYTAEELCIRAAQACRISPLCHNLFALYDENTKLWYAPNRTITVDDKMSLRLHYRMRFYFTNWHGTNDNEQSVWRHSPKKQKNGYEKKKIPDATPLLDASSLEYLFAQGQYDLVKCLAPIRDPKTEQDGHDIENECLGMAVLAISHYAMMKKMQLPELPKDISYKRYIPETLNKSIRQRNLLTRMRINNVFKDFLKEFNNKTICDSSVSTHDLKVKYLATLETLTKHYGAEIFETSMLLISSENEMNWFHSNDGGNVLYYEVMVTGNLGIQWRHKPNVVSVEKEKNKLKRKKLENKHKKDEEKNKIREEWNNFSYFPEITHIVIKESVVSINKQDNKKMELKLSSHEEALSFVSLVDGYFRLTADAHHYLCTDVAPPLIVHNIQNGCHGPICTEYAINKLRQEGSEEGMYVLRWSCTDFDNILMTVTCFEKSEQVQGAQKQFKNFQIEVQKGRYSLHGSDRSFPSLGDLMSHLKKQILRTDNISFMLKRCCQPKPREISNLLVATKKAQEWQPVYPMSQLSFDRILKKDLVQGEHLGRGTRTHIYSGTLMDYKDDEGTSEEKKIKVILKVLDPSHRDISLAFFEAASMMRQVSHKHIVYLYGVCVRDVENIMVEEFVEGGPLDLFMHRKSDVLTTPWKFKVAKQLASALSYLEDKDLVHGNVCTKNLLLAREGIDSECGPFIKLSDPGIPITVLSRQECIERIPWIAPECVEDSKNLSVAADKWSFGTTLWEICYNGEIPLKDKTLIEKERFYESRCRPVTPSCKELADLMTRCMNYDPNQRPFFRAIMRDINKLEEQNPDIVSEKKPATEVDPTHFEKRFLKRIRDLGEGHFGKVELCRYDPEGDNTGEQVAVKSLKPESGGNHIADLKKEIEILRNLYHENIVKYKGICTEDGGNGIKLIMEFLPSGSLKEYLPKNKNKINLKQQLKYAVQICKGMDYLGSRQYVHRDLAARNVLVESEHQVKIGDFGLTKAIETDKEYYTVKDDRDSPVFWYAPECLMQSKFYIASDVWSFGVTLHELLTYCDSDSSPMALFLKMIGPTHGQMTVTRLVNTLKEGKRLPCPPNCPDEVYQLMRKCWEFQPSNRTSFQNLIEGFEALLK

[8] = Clearance in human liver microsomes assessed per mg protein; type: ADME, Microsome; settings: read-out: CLH
[9] = target: T1, Tyrosine-protein kinase JAK2; assay: Inhibition of JAK2 homodimer signaling pathway in human whole blood spiked with CD34 +ve cells assessed as reduction in EPO induced STAT5 phosphorylation preincubated for 45 mins followed by EPO addition and measured measured after 15 mins by immunostaining based FACS assay; type: tissue-based

SMILES | fIC50 (TYK2/JAK2 (Homo sapiens)) | fraction unbound [1] | Papp [2] | Ratio IC50 (Homo sapiens) | IC50 [3] | IC50 [4] | IC50 [5] | logD (physchem) | hepatocyte CLint [6] | IC50 [7] | microsomal CLint [8] | IC50 [9]
N#CC[C@]1(n2cc(-c3nc(-c4cc[nH]n4)cn4nccc34)cn2)C[C@H](C#N)C1 | 334 nM | 0.32 | 17 ×10⁻⁶ cm/s | 7 | 26 nM | 172 nM | > 10000 nM | 1.7 | 7 µL/min/1e6 cells | 284 nM | < 8 µL/min/mg | 
Cn1cc(-c2cn3nccc3c(-c3cnn(C4(CC#N)CN(CC(F)(F)F)C4)c3)n2)cn1 |  |  | 18 ×10⁻⁶ cm/s |  | 10 nM | 65 nM | > 9850 nM | 2.5 |  | 358 nM | 18 µL/min/mg | 
Cn1cc(-c2cn3nccc3c(-c3cnn([C@]4(CC#N)C[C@H](CC#N)C4)c3)n2)cn1 |  |  | 21 ×10⁻⁶ cm/s |  |  |  |  | 1.8 |  |  | 10 µL/min/mg | 
Cn1cc(-c2cc(-c3cnn(C4(CC#N)CN(CC(F)(F)F)C4)c3)n3ncnc3c2)cn1 |  |  |  |  | 476 nM |  |  | 2.3 |  |  |  | 
Cn1cc(-c2cc(-c3cnn(C4(CC#N)CN(CC(F)(F)F)C4)c3)n3ccnc3c2)cn1 |  |  |  |  | 290 nM |  |  | 2.1 |  |  |  | 
N#CC[C@]1(n2cc(-c3nc(-c4cn[nH]c4)cn4nccc34)cn2)C[C@H](C#N)C1 |  |  | 7 ×10⁻⁶ cm/s |  | 44 nM | 280 nM | > 10000 nM | 1.7 |  | 398 nM | 19 µL/min/mg | 
Cn1cc(-c2cn3nccc3c(-c3cnn(C4(CC#N)CN(CCO)C4)c3)n2)cn1 |  |  | 7 ×10⁻⁶ cm/s |  | 189 nM | 1040 nM | > 10000 nM | 1.2 |  | 5580 nM | < 8 µL/min/mg | 
Cn1cc(-c2cn3nccc3c(-c3cnn(C4(CC#N)CN(CC5CC5)C4)c3)n2)cn1 |  |  | 27 ×10⁻⁶ cm/s |  | 40 nM | 187 nM | > 10000 nM |  |  | 933 nM | 30 µL/min/mg | 
N#CC[C@]1(n2cc(-c3nc(-c4cc[nH]n4)cn4nccc34)cn2)C[C@@H](C#N)C1 |  |  | 7 ×10⁻⁶ cm/s |  | 9 nM | 31 nM | 4450 nM | 1.7 |  | 43 nM | 20 µL/min/mg | 
N#CC[C@]1(n2cc(-c3nc(-c4cn[nH]c4)cn4nccc34)cn2)C[C@@H](C#N)C1 |  |  | 6 ×10⁻⁶ cm/s |  | 8 nM | 22 nM | 2240 nM | 1.6 |  | 22 nM | 44 µL/min/mg | 
Cn1cc(-c2cn3nccc3c(-c3cnn(C4(CC#N)CN(CC#N)C4)c3)n2)cn1 |  |  | 11 ×10⁻⁶ cm/s |  |  |  |  | 1.5 |  |  | < 8 µL/min/mg | 
CC(=O)N1CC(CC#N)(n2cc(-c3nc(-c4cnn(C)c4)cn4nccc34)cn2)C1 |  |  | 4 ×10⁻⁶ cm/s |  | 678 nM | 1750 nM | > 10000 nM | 1.2 |  | 6110 nM | < 8 µL/min/mg | 
CCN1CC(CC#N)(n2cc(-c3nc(-c4cnn(C)c4)cn4nccc34)cn2)C1 |  |  | 33 ×10⁻⁶ cm/s |  | 46 nM | 346 nM | > 10000 nM | 2.1 |  | 2670 nM | 21 µL/min/mg | 
Cn1ccc(-c2cn3nccc3c(-c3cnn([C@]4(CC#N)C[C@H](C#N)C4)c3)n2)n1 |  |  | 14 ×10⁻⁶ cm/s |  | 10 nM | 45 nM | > 9590 nM | 1.6 |  | 261 nM | 23 µL/min/mg | 
CO[C@H]1C[C@](CC#N)(n2cc(-c3nc(-c4cnn(C)c4)cn4nccc34)cn2)C1 |  | 0.3 | 22 ×10⁻⁶ cm/s |  |  |  |  | 2.3 | 6 µL/min/1e6 cells |  | < 8 µL/min/mg | 1100 nM
Cn1cc(-c2cn3nccc3c(-c3cnn([C@]4(CC#N)C[C@@H](CC#N)C4)c3)n2)cn1 |  |  | 20 ×10⁻⁶ cm/s |  |  |  |  | 1.9 |  |  | 11 µL/min/mg | 
CO[C@H]1C[C@@](CC#N)(n2cc(-c3nc(-c4cnn(C)c4)cn4nccc34)cn2)C1 |  |  | 20 ×10⁻⁶ cm/s |  |  |  | > 10000 nM | 2.2 |  |  | 27 µL/min/mg | 
Cn1ccc(-c2cn3nccc3c(-c3cnn([C@]4(CC#N)C[C@@H](C#N)C4)c3)n2)n1 | 254 nM | 0.2 | 20 ×10⁻⁶ cm/s | 7 | 67 nM | 467 nM | > 10000 nM | 1.6 | < 2 µL/min/1e6 cells | 2530 nM | < 8 µL/min/mg | 
Cn1cc(-c2cn3nccc3c(-c3cnn([C@]4(CC#N)C[C@H](C#N)C4)c3)n2)cn1 |  | 0.34 | 15 ×10⁻⁶ cm/s |  |  |  |  | 1.8 | 12 µL/min/1e6 cells |  | 17 µL/min/mg | 
Cn1cc(-c2cc(-c3cnn(C4(CC#N)CN(CC(F)(F)F)C4)c3)n3cnnc3c2)cn1 |  |  |  |  | > 10000 nM |  |  | 1.2 |  |  |  | 
